Results from publication PMC11459959, “Discovery of new acetamide derivatives of 5-indole-1,3,4-oxadiazol-2-thiol as inhibitors of HIV-1 Tat-mediated viral transcription” (Antimicrobial Agents and Chemotherapy, 2024).

Columns and labels:
[1] = system: reverse transcription of the infected virus; assay: Viral reverse transcription product (viral cDNA) in infected A3.01 cells, RT-qPCR; assay type: cell-based, HIV-1; conditions: 1.5 µM, 16 h after infection
Method: Fig 5 (A) Time-of-addition assay. […] Subsequently, the cells were treated with the compounds at the indicated time points (0, 1, 2, 4, 6, 8, 10, 12, 24, 30, 36, 42, and 48 h) after HIV-1 infection. The final concentrations of compounds are described in Materials and Methods. Viral activity according to the timing of drug addition was measured as F-Luc activity at 54 h after infection. The relative activities are represented as the mean ± SD (n = 3) compared with the activity observed 54 h post-infection. The relative time frames associated with each HIV-1 infection step are defined based on the time frame of susceptibility to the drug that blocks that particular infection step. […] At 16 h after infection, the viral reverse transcription (RT) product (viral cDNA) level was determined by quantitative real-time PCR (RT-qPCR) using gag and 18S rRNA primer sets and represented as the mean ± SD (n = 3) normalized against the amount of the 18S rRNA compared with the DMSO control. **P < 0.01 compared with the vehicle (DMSO). […] At 40 h after infection, cellular chromosomal DNA was purified, and the integrated proviral DNA was detected through nested Alu-PCR amplification.
The activity of HIV-1 RT was determined as previously described with some minor modifications ([66][–][68]). […] The relative levels of RT products were analyzed using the ΔΔCt-method, as described above. […]

Tat protein = assay: Nuclear localization of Tat protein, cell fractionation and western blotting; assay type: cell-based, HIV-1; conditions: 1.5 μM, transfected cells

Row | SMILES | inhibitory effect on reverse transcription of the infected virus [1] | change in nuclear localization of the Tat protein (Tat protein)
1 | Cc1[nH]c2ccc(-c3nnc(SCC(=O)N4CCCC4)o3)cc2c1C [Compound 13, 2-((5-(2,3-Dimethyl-1H-indol-5-yl)-1,3,4-oxadiazol-2-yl)thio)-1-(pyrrolidin-1-yl)ethan-1-one] | did not exhibit the inhibitory effect | no changes were observed
2 | Cc1[nH]c2ccc(-c3nnc(SCC(=O)N4CCCCC4)o3)cc2c1C [Compound 9, 2-((5-(2,3-Dimethyl-1H-indol-5-yl)-1,3,4-oxadiazol-2-yl)thio)-1-(piperidin-1-yl)ethan-1-one] | did not exhibit the inhibitory effect | no changes were observed
